Source: ChEMBL document CHEMBL1139916, “6-hydroxy to 6'''-amino tethered ring-to-ring macrocyclic aminoglycosides as probes for APH(3')-IIIa kinase” (2007)

How the values were obtained:
Staphylococcus aureus = test: Growth inhibition of Staphylococcus aureus; assay type: functional
Escherichia coli = test: Growth inhibition of Escherichia coli; assay type: functional
[1] = Activity of bacterial APH(3')-3a kinase
[2] = Ratio of Kcat/Km of bacterial APH(3')-3a kinase
[3] = Activity of bacterial APH(3')-3a kinase assessed high affinity phosphorylation
[4] = Activity of bacterial APH(3')-3a kinase assessed low affinity phosphorylation
[5] = Ratio of Kcat/Km of bacterial APH(3')-3a kinase-mediated high affinity phosphorylation
[6] = Ratio of Kcat/Km of bacterial APH(3')-3a kinase-mediated low affinity phosphorylation

| MIC (Staphylococcus aureus) [µg/mL] | MIC (Escherichia coli) [µg/mL] | Km [1] [µM] | Vmax [1] [µM/s] | kcat [1] [s⁻¹] | kcat/Km [2] | SMILES | Km [3] [µM] | Vmax [3] [µM/s] | kcat [3] [s⁻¹] | Km [4] [µM] | Vmax [4] [µM/s] | kcat [4] [s⁻¹] | kcat/Km [5] | kcat/Km [6] |
| --- | --- | --- | --- | --- | --- | --- | --- | --- | --- | --- | --- | --- | --- | --- |
| > 40 | > 10 | – | – | – | – | N[C@H]1[C@H]2O[C@H]3[C@@H](O)[C@H](O[C@@H]4[C@@H](OCCCCCNC[C@H](O2)[C@@H](O)[C@@H]1O)[C@H](N)C[C@H](N)[C@H]4O[C@H]1O[C@H](CO)[C@@H](O)[C@H](O)[C@H]1N)O[C@@H]3CO | – | – | – | – | – | – | – | – |
| > 40 | > 10 | 21.8 | 0.07 | 0.073 | 3.35 10^3/M/s | N[C@H]1[C@H]2O[C@H]3[C@@H](O)[C@H](O[C@@H]4[C@@H](OCCCCC(=O)NC[C@H](O2)[C@@H](O)[C@@H]1O)[C@H](N)C[C@H](N)[C@H]4O[C@H]1O[C@H](CO)[C@@H](O)[C@H](O)[C@H]1N)O[C@@H]3CO | – | – | – | – | – | – | – | – |
| – | – | – | – | – | – | NC[C@@H]1O[C@H](O[C@H]2[C@@H](O)[C@H](O[C@@H]3[C@@H](O)[C@H](N)C[C@H](N)[C@H]3O[C@H]3O[C@H](CO)[C@@H](O)[C@H](O)[C@H]3N)O[C@@H]2CO)[C@H](N)[C@@H](O)[C@@H]1O | 16.9 | 0.183 | 0.19 | 51.1 | 0.292 | 0.304 | 1.12 10^4/M/s | 5.95 10^3/M/s |
